Measured values from patent publication US8809498B2, “Pepstatin A derivatives” (priority 2008, dated 2014).
Non-standard residues stand in square brackets, D forms with d. Residues, ends and D or L forms follow the SMILES beside them. *: point of attachment. Phe(2-F) = N[C@@H](Cc1ccccc1F)C(=O)O; Sta = CC(C)C[C@H](N)[C@@H](O)CC(=O)O; Isovaleryl = CC(C)CC(=O)*; Nle = CCCC[C@H](N)C(=O)O

What was measured:
Format in all cases: biochemical
[1] = molecular target: Sap5 (Candida albicans, UniProt P43094); test: Inhibition of proteolytic activity of Sap5
Sap5, sequence (P43094 77-418): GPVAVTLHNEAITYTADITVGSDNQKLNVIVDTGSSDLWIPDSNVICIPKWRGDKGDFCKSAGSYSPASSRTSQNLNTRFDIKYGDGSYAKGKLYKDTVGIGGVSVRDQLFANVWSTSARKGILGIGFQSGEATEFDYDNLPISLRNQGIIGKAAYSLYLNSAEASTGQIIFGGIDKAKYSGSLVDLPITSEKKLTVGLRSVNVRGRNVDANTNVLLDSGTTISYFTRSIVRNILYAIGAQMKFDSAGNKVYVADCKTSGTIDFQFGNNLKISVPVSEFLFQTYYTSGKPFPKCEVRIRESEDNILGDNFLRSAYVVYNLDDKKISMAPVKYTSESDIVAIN
Procedure: (§1) For this purpose, that inhibitor concentration was determined in vitro at which the proteolytic activity of the enzyme or its velocity of metabolizing a substrate, respectively, was reduced for 50%.
(§2) The proteolytic activity of the tested Saps was determined at the pH optimum of those Saps. Resorufin-marked casein was used as substrate. Proteolysis of casein can be detected by an increase in fluorescence due to released resorufin (a fluorescence marker) by proteolysis.
(§3) The mixture of enzyme and substrate or of enzyme, substrate and inhibitor was incubated at 37° C. under agitation at 300 rpm (rounds per minute) for 60 min in each case. Afterwards, 20 μl of a trichloroacetic acid solution (30%, w/v) were added. The mixture was placed on ice for 5 minutes and centrifuged afterwards for 3 min at 6000 rpm. The supernatant was removed.
(§4) To carry out fluorescence measurements, 100 μl of the supernatant were mixed with 100 μl Tris-HCl (trishydroxymethylaminomethane-HCl) having a concentration of 1 mol/l and a pH of 10.0. The fluorescence of this mixture was measured directly after adding Tris-HCl using an excitation wavelength of 530 nm and an emission wavelength of 590 nm on a CytoFluor 2350 apparatus (Millipore, Bedford, Mass., USA), wherein sensitivity was set to 2 and bandwidth was set to 7.
(§5) The average of three independent fluorescence measurements was calculated. The fluorescence of enzyme without inhibitor (i.e. inhibitor concentration of 0 nmol/l) was set to 100% enzyme activity. The activity of inhibited enzyme was calculated accordingly from the fluorescence of inhibited enzyme with respect to fluorescence of enzyme without inhibitor. Finally, the enzyme activity was plotted against the inhibitor concentration and the IC50 value was determined.

[2] = molecular target: Sap3 of Candida albicans (Candida albicans, UniProt P0CY29); test: Inhibition of proteolytic activity of Sap3 (resorufin-marked casein, fluorescence)
Sap3 of Candida albicans, sequence (P0CY29 59-398): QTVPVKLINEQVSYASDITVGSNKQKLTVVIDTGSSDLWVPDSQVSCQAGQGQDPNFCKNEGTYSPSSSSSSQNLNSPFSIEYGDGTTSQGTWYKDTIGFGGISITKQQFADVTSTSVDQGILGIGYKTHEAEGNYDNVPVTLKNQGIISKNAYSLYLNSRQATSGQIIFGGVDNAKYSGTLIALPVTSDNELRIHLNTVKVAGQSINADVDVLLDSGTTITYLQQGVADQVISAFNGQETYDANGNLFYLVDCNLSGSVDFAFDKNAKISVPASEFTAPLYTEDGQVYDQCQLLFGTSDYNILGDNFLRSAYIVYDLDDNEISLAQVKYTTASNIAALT
Procedure: as §1, §2
(§6) Sap1, Sap3 and Sap6 of Candida albicans were independently dissolved in 2-(N-morpholino)ethanesulfonic acid (MES) having a concentration of 10 mmol/l and a pH of 6.5 resulting in enzyme solutions having a Sap concentration of 100 mmol/l. After one hour incubation at room temperature, 80 μl of a substrate solution comprising resorufin-marked casein in a sodium citrate buffer having a concentration of 500 mmol/l and a pH of 3.5 (in case of Sap3), 4.5 (in case of Sap1) and 5.0 (in case of Sap6) were added to 20 μl of enzyme solution. The resulting Sap concentration was 5 nmol/l. The resulting casein concentration was chosen such that the Saps could work in excess of substrate. Different Sap inhibitors were added, resulting in a final inhibitor concentration of 1 nmol/1, 2 nmol/1, 5 nmol/1, 10 nmol/l, nmol/l or 50 nmol/l in each case. One enzyme-substrate sample was left without addition of inhibitor. All experiments were performed in triplicate.
as §3, §4, §5

[3] = system: Saps of Candida albicans; test: Overall Sap inhibition (summary of table 1); settings: table 1 summary
Procedure: as §1, §2
as §6, with “Different Sap inhibitors were added, resulting in a final inhibitor concentration of 1 nmol/1, 2 nmol/1, 5 nmol/1, 10 nmol/l, nmol/l or 50 nmol/l in each case. One enzyme-substrate sample was left without addition of inhibitor. All experiments were performed in triplicate.” left out
as §4, §5

[4] = molecular target: Sap6 of Candida albicans (Candida albicans, UniProt Q5AC08); test: Inhibition of proteolytic activity of Sap6 (resorufin-marked casein, fluorescence)
Sap6 of Candida albicans, sequence (Q5AC08 77-418): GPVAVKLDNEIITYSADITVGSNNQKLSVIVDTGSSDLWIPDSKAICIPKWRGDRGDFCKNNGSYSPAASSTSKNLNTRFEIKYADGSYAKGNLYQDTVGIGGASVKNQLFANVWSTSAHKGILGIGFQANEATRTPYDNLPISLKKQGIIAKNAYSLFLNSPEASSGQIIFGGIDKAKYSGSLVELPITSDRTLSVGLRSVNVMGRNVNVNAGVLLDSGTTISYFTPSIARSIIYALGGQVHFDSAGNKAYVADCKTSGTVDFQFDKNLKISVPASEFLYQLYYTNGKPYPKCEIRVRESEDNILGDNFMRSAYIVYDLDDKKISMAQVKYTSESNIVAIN
Procedure: as §1, §2, §6, §3, §4, §5

[5] = molecular target: Sap1 of Candida albicans (Candida albicans, UniProt P0CY27); test: Inhibition of proteolytic activity of Sap1 (resorufin-marked casein, fluorescence)
Sap1 of Candida albicans, sequence (P0CY27 51-391): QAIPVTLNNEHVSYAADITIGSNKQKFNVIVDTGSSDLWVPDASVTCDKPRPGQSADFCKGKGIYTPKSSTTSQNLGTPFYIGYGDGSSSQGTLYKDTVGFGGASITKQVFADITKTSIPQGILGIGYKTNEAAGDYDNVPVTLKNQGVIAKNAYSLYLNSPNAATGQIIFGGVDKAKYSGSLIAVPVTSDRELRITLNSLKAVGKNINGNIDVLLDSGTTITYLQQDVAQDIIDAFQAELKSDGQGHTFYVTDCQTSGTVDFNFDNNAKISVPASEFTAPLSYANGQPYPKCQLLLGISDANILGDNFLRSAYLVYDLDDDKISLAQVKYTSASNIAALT
Procedure: as §1, §2, §6, §3, §4, §5

Cc1cccc(C)c1OCC(=O)N[C@@H](Cc1ccccc1)[C@@H](O)C[C@H](Cc1ccccc1)NC(=O)[C@H](C(C)C)N1CCCNC1=O [Lopinavir, reference compound]
IC50 [1]: > 312000 nM | IC50 [2]: > 312000 nM | IC50 values, range [3]: in the range of micromole per litre | IC50 [4]: > 312000 nM | IC50 [5]: 312000 nM

CC(C)c1nc(CN(C)C(=O)N[C@H](C(=O)N[C@@H](Cc2ccccc2)C[C@H](O)[C@H](Cc2ccccc2)NC(=O)OCc2cncs2)C(C)C)cs1 [Ritonavir]
IC50 values, range [3]: in the range of micromole per litre

CC(C)CC(=O)N[C@H](C(=O)N[C@H](C(=O)N[C@@H](CC(C)C)[C@@H](O)CC(=O)N[C@@H](C)C(=O)N[C@@H](CC(C)C)[C@@H](O)CC(=O)O)C(C)C)C(C)C [Pepstatin A] (Isovaleryl-VV[Sta]A[Sta]-OH)
IC50 [1]: 5 nM | IC50 [2]: ~1 nM | IC50 [4]: ~7 nM | IC50 [5]: ~7 nM

CC(C)CC(=O)N[C@H](C(=O)N[C@@H](CCCCN)C(=O)N[C@@H](CC(C)C)[C@@H](O)CC(=O)N[C@@H](C)C(=O)N[C@@H](CC(C)C)[C@@H](O)CC(=O)O)C(C)C [P2(Lys)-pepstatin, (N-Iva-Val)-Lys-Sta-Ala-Sta] (Isovaleryl-VK[Sta]A[Sta]-OH)
IC50 [1]: ~20 nM | IC50 [2]: ~100 nM | IC50 [4]: 50 nM | IC50 [5]: > 500 nM

CCCC[C@H](NC(=O)[C@@H](NC(=O)CC(C)C)C(C)C)C(=O)N[C@@H](CC(C)C)[C@@H](O)CC(=O)N[C@@H](C)C(=O)N[C@@H](CC(C)C)[C@@H](O)CC(=O)O [P2(Nle)-pepstatin, (N-Iva-Val)-N/e-Sta-Ala-Sta] (Isovaleryl-V[Nle][Sta]A[Sta]-OH)
IC50 [1]: 10 nM | IC50 [2]: < 5 nM | IC50 [4]: ~15 nM | IC50 [5]: ~10 nM

CC(C)CN(C[C@@H](O)[C@H](Cc1ccccc1)NC(=O)O[C@H]1CCOC1)S(=O)(=O)c1ccc(N)cc1 [Amprenavir, reference compound]
IC50 [1]: ~33000 nM | IC50 [2]: ~20000 nM | IC50 values, range [3]: in the range of micromole per litre | IC50 [4]: > 50000 nM | IC50 [5]: ~5000 nM

CCCC[C@H](NC(=O)[C@H](Cc1ccccc1)NC(=O)CC(C)C)C(=O)N[C@@H](CC(C)C)[C@@H](O)CC(=O)N[C@@H](CCCCN)C(=O)N[C@@H](CC(C)C)[C@@H](O)CC(=O)O [Compound K, (N-Iva-Phe)-Nle-Sta-Lys-Sta] (Isovaleryl-F[Nle][Sta]K[Sta]-OH)
IC50 [1]: ~5 nM | effect on Sap 5 ([1]; versus pepstatin A): increased effect on Sap 5 | IC50 [2]: 20 nM | IC50 [4]: ~50 nM | IC50 [5]: < 5 nM | effectiveness against Sap1 compared with pepstatin A ([5]; versus pepstatin A): more effective against Sap1 than pepstatin A itself

CC(C)CC(=O)N[C@@H](Cc1ccccc1F)C(=O)N[C@H](C(=O)N[C@@H](CC(C)C)[C@@H](O)CC(=O)N[C@@H](C)C(=O)N[C@@H](CC(C)C)[C@@H](O)CC(=O)O)C(C)C [P3(o-FPhe)-pepstatin, (N-Iva-oFPhe)-Val-Sta-Ala-Sta] (Isovaleryl-[Phe(2-F)]V[Sta]A[Sta]-OH)
IC50 [1]: ~50 nM | IC50 [2]: ~20 nM | IC50 [4]: ~100 nM | IC50 [5]: ~20 nM
